Measurements as given in patent US20230234948A1, “CYCLOPROPYL DIHYDROQUINOLINE SULFONAMIDE COMPOUNDS” (AMGEN INC., priority 2020, published 2023).

Molecular target: T1, Human NaV1.7 (Homo sapiens, UniProt Q15858)
T1 construct: expressed in transfected cells; host or cells: Spiking HEK cells (without Kir2.1 transfection)
Assay: Ionworks Barracuda (IWB) automated patch clamp assay
Assay type: cell-based
Settings: human NaV1.7 in HEK cells, population patch-clamp, state- and use-dependent voltage protocol; read-out: hNaV1.7 IWB-U IC50
Procedure: Ionworks Barracuda (IWB) Automated Patch Clamp Assay (Same Protocol for Both Human and Mouse)
Human NaV1.7 currents were recorded in population patch-clamp mode with the IWB automated electrophysiology system (Molecular Devices, LLC, Sunnyvale, Calif.). Spiking HEK cells (without Kir2.1 transfection) were cultured and prepared for recordings as previously described for IonWorks Quattro testing^1. The external solution consisted of the following (in mM): NaCl 140, KCl 5, CaCl2 2, MgCl2 1, HEPES 10, and glucose 11, pH 7.4, with N-methyl-D-glucamine at 320 mOsmol. […] From a holding potential of −110 mV, currents were elicited by a train of 26 depolarizations of 150 ms duration to −20 mV at a frequency of 5 Hz. Cells were then clamped to −20 mV for a period of 4 minutes in the presence of a single concentration of test compound. Following this compound incubation period, cells were clamped to −110 mV for three seconds to recover unbound channels and put through the same 26 pulse voltage protocol as above. Peak inward current during the 26th pulse to −20 mV in the presence of compound was divided by the peak inward current evoked by the 26th pulse to −20 mV in the absence of compound to determine percent inhibition. Concentration-response curves of percent inhibition as a function of concentration were generated to calculate IC50 values as described in Kornecook, T. J.; Yin, R.; Altmann, S.; et al. Pharmacologic Characterization of AMG8379, a Potent and Selective Small Molecule Sulfonamide Antagonist of the Voltage-Gated Sodium Channel NaV1. 7.
The potency of the compounds of the present invention were evaluated on human NaV1.7 channels using the above described IonWorks Barracuda automated electrophysiology platform that evaluates the ability of compounds to block sodium conductance through NaV1.7 channels. A voltage-protocol that prosecutes both state-dependent as well as use-dependent inhibition was used as these modes of action are thought to be more relevant for the native state of NaV1.7 channels in pain sensing neurons in vivo.

T1 sequence (Q15858 whole entry): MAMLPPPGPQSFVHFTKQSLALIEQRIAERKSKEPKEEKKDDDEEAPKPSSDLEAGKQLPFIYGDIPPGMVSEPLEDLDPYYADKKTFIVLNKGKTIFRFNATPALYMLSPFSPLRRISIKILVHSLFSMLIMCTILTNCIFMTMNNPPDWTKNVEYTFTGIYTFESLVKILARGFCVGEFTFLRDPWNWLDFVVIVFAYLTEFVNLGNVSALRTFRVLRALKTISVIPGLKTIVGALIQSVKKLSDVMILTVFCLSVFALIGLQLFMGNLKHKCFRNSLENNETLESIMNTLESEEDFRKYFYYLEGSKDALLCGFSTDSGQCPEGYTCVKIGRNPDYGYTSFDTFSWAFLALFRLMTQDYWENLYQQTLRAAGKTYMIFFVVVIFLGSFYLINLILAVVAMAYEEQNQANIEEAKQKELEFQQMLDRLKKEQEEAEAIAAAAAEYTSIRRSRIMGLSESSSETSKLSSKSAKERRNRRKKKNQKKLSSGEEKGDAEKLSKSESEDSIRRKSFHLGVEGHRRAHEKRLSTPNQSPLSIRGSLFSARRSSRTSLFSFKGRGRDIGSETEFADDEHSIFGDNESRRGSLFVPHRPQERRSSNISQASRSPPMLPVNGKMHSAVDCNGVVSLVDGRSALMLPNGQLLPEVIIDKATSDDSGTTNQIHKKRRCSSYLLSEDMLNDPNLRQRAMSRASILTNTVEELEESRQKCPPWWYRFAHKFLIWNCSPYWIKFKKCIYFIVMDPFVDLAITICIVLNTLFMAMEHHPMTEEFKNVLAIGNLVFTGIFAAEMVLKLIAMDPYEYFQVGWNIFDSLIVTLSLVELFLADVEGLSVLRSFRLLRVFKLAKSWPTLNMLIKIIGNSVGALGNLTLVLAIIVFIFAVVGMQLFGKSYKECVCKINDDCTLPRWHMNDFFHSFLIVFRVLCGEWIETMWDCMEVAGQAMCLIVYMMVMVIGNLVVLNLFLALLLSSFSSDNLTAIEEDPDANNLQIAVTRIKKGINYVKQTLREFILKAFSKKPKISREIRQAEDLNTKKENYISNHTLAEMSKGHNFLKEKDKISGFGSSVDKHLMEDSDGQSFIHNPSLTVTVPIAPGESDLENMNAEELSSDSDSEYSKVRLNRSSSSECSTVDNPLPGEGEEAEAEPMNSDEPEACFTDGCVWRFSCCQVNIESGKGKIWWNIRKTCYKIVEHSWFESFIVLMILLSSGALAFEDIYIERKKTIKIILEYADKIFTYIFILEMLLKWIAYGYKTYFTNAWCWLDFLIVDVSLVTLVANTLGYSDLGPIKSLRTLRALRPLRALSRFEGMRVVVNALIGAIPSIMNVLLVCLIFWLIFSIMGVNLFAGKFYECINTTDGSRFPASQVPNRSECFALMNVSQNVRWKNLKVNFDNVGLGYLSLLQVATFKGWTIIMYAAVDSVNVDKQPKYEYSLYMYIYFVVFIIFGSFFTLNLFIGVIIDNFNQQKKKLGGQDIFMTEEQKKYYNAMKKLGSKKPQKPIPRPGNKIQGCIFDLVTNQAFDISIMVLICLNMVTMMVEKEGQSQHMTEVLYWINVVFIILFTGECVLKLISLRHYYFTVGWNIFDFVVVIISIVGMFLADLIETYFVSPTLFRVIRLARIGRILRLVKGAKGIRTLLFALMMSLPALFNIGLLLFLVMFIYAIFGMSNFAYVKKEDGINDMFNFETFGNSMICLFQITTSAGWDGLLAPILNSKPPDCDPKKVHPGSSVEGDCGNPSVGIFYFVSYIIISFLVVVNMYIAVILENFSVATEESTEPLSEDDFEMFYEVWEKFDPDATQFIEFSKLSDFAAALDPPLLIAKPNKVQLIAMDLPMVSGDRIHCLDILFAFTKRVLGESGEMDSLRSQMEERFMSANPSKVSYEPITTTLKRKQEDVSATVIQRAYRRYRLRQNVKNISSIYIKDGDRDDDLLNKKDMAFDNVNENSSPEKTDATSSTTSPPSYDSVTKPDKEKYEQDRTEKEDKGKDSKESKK

SMILES	IC50
COc1cc([C@H]2C[C@@H]2C(F)(F)F)c(C#N)cc1-n1c(=O)ccc2cc(S(=O)(=O)Nc3ccon3)ccc21 (atropisomer, axis not shown; (P)) [Example 37, (P)-1-(5-cyano-2-methoxy-4-((1S,2S)-2-(trifluoromethyl)cyclopropyl)phenyl)-N-(isoxazol-3-yl)-2-oxo-1,2-dihydroquinoline-6-sulfonamide]	7 nM
COc1cc([C@@H]2C[C@H]2C(F)(F)F)c(F)cc1-n1c(=O)cc(F)c2cc(S(=O)(=O)Nc3ccon3)ccc21 (atropisomer, axis not shown; (P)) [Example 44, (P)-4-fluoro-1-(5-fluoro-2-methoxy-4-((1R,2R)-2-(trifluoromethyl)cyclopropyl)phenyl)-N-(isoxazol-3-yl)-2-oxo-1,2-dihydroquinoline-6-sulfonamide]	5 nM
COc1cc([C@@H]2C[C@H]2C(F)(F)F)ccc1-n1c(=O)ccc2cc(S(=O)(=O)Nc3ccon3)c(F)cc21 (atropisomer, axis not shown; (P)) [Example 47, (P)-7-fluoro-N-(isoxazol-3-yl)-1-(2-methoxy-4-((1R,2R)-2-(trifluoromethyl)cyclopropyl)phenyl)-2-oxo-1,2-dihydroquinoline-6-sulfonamide]	12 nM
COc1cc([C@@H]2C[C@H]2C(F)(F)F)c(F)cc1-n1c(=O)ccc2cc(S(=O)(=O)Nc3ccon3)ccc21 (racemic) [Example 3, trans-1-(5-fluoro-2-methoxy-4-(2-(trifluoromethyl)cyclopropyl)phenyl)-N-(isoxazol-3-yl)-2-oxo-1,2-dihydroquinoline-6-sulfonamide]	23 nM
COc1cc([C@H]2C[C@@H]2C(F)(F)F)c(Cl)cc1-n1c(=O)ccc2cc(S(=O)(=O)Nc3cccnn3)ccc21 (single isomer, unassigned) [Example 15]	14 nM
COc1cc(C2(C(F)(F)F)CC2)c(F)cc1-n1c(=O)ccc2cc(S(=O)(=O)Nc3ccon3)ccc21 (single isomer, unassigned) [Example 22, (P)-1-(5-fluoro-2-methoxy-4-(1-(trifluoromethyl)cyclopropyl)phenyl)-N-(isoxazol-3-yl)-2-oxo-1,2-dihydroquinoline-6-sulfonamide]	14 nM
COc1cc([C@H]2C[C@@H]2C(F)(F)F)c(C)cc1-n1c(=O)ccc2cc(S(=O)(=O)Nc3ccon3)ccc21 (single isomer, unassigned) [Example 27]	13 nM
COc1cc(C2(C(F)(F)F)CC2)c(F)cc1-n1c(=O)ccc2cc(S(=O)(=O)Nc3ccon3)ccc21 (single isomer, unassigned) [Example 42, (P)-1-(5-fluoro-2-methoxy-4-(1-(trifluoromethyl)cyclopropyl)phenyl)-N-(isoxazol-3-yl)-2-oxo-1,2-dihydroquinoline-6-sulfonamide]	20 nM
COc1cc(C2(C(F)(F)F)CC2)c(F)cc1-n1c(=O)ccc2cc(S(=O)(=O)Nc3ccon3)ccc21 (single isomer, unassigned) [Example 43, (M)-1-(5-fluoro-2-methoxy-4-(1-(trifluoromethyl)cyclopropyl)phenyl)-N-(isoxazol-3-yl)-2-oxo-1,2-dihydroquinoline-6-sulfonamide]	1630 nM
COc1cc([C@H]2C[C@@H]2C(F)(F)F)c(F)cc1-n1c(=O)ccc2cc(S(=O)(=O)Nc3ccon3)c(F)cc21 (single isomer, unassigned) [Example 46]	11 nM

Other lines, results leading:

IC50	SMILES
9 nM	COc1cc([C@H]2C[C@@H]2C2CC2)c(F)cc1-n1c(=O)ccc2cc(S(=O)(=O)Nc3ccon3)ccc21 (atropisomer, axis not shown; (P)) [Example 31, (P)-1-(4-((1R,2S)-[1,1′-bi(cyclopropan)]-2-yl)-5-fluoro-2-methoxyphenyl)-N-(isoxazol-3-yl)-2-oxo-1,2-dihydroquinoline-6-sulfonamide]
5 nM	COc1cc([C@@H]2C[C@H]2C(F)(F)F)c(F)cc1-n1c(=O)ccc2cc(S(=O)(=O)Nc3ncns3)ccc21 (atropisomer, axis not shown; (P)) [Example 34, (P)-1-(5-fluoro-2-methoxy-4-((1R,2R)-2-(trifluoromethyl)cyclopropyl)phenyl)-2-oxo-N-(1,2,4-thiadiazol-5-yl)-1,2-dihydroquinoline-6-sulfonamide]
11 nM	COc1cc([C@@H]2C[C@H]2C(F)(F)F)c(F)cc1-n1c(=O)ccc2cc(S(=O)(=O)Nc3ncco3)ccc21 (atropisomer, axis not shown; (P)) [Example 35, (P)-1-(5-fluoro-2-methoxy-4-((1R,2R)-2-(trifluoromethyl)cyclopropyl)phenyl)-N-(oxazol-2-yl)-2-oxo-1,2-dihydroquinoline-6-sulfonamide]
6 nM	COc1cc([C@H]2C[C@@H]2C(F)(F)F)c(F)cc1-n1c(=O)ccc2cc(S(=O)(=O)Nc3ncco3)ccc21 (atropisomer, axis not shown; (P)) [Example 36, (P)-1-(5-fluoro-2-methoxy-4-((1S,2S)-2-(trifluoromethyl)cyclopropyl)phenyl)-N-(oxazol-2-yl)-2-oxo-1,2-dihydroquinoline-6-sulfonamide]
11 nM	COc1cc([C@H]2C[C@@H]2C(F)(F)F)ccc1-n1c(=O)ccc2cc(S(=O)(=O)Nc3ccon3)c(F)cc21 (atropisomer, axis not shown; (P)) [Example 48, (P)-7-fluoro-N-(isoxazol-3-yl)-1-(2-methoxy-4-((1S,2S)-2-(trifluoromethyl)cyclopropyl)phenyl)-2-oxo-1,2-dihydroquinoline-6-sulfonamide]
